# Test results reported in ChEMBL document CHEMBL1140269, “Amino-substituted heterocycles as isosteres of trans-cinnamides: design and synthesis of heterocyclic biaryl sulfides as potent antagonists of LFA-1/ICAM-1 binding” (Bioorg Med Chem Lett, 2005).
# Columns and labels:
# [1] = target: T1, Intercellular adhesion molecule (ICAM-1), Integrin alpha-L/beta-2 (Homo sapiens) (UniProt P20701+P05362+P05107); assay: Inhibitory activity against ICAM-1/integrin LFA-1 binding complex at 20 uM concentration; type: protein-complex assay
# [2] = target: T2, Intercellular adhesion molecule (ICAM-1), Integrin alpha-L/beta-2 (Homo sapiens, UniProt P05107+P20701); assay: Inhibitory concentration against integrin LFA-1/ICAM-1 binding complex; type: protein-complex assay
# [3] = target: T2, Intercellular adhesion molecule (ICAM-1), Integrin alpha-L/beta-2; assay: Effective concentration to measure the adherence of LFA-1 expressing JY8 cells to immobilized ICAM-1 in cell-based adhesion assay
# [4] = target: T1, Intercellular adhesion molecule (ICAM-1), Integrin alpha-L/beta-2 (Homo sapiens); assay: Inhibitory activity against ICAM-1/integrin LFA-1 binding complex at 1 uM concentration; type: protein-complex assay
# T2 sequence (P20701 whole entry): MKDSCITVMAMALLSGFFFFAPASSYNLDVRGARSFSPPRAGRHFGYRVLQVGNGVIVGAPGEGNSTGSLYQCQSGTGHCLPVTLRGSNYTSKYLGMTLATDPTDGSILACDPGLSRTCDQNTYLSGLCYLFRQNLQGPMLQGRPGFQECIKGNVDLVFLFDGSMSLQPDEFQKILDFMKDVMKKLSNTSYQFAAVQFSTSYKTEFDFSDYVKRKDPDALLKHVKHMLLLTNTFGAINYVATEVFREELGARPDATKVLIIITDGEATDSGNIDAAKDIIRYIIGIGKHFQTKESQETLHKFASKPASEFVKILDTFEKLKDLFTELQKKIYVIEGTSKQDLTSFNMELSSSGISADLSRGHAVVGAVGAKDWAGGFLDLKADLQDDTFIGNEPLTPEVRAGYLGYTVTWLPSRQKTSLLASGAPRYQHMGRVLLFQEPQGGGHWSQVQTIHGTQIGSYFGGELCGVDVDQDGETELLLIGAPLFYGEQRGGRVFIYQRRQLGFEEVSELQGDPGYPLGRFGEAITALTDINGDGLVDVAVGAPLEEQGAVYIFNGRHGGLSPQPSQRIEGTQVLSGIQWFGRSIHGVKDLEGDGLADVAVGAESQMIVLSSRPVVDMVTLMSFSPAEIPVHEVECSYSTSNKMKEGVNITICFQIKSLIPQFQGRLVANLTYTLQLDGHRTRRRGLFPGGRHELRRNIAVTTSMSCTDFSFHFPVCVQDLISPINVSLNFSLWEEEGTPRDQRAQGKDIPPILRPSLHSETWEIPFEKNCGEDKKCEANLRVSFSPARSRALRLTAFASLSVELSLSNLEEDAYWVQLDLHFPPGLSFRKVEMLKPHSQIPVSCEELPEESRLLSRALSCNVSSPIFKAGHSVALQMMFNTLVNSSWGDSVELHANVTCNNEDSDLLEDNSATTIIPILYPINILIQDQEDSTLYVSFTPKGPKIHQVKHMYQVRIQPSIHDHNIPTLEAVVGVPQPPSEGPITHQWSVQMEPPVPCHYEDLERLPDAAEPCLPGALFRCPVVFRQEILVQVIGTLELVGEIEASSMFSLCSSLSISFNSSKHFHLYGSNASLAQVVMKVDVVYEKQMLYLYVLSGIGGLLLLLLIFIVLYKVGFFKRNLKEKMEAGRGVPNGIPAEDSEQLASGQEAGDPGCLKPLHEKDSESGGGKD
# T2 sequence (P05362 whole entry, further chain): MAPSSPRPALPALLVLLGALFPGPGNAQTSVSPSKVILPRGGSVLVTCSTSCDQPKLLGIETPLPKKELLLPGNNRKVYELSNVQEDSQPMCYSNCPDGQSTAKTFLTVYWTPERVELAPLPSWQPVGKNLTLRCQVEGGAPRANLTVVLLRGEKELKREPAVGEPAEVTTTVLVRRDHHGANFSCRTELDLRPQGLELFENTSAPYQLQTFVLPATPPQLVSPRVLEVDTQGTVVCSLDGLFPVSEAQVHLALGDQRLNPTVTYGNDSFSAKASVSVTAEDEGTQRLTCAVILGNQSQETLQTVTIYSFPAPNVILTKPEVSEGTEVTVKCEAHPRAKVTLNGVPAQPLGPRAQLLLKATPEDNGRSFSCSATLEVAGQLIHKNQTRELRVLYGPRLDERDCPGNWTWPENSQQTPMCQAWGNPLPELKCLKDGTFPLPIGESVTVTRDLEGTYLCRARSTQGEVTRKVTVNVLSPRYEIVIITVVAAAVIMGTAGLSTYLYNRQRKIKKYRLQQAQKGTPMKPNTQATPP
# T2 sequence (P05107 whole entry): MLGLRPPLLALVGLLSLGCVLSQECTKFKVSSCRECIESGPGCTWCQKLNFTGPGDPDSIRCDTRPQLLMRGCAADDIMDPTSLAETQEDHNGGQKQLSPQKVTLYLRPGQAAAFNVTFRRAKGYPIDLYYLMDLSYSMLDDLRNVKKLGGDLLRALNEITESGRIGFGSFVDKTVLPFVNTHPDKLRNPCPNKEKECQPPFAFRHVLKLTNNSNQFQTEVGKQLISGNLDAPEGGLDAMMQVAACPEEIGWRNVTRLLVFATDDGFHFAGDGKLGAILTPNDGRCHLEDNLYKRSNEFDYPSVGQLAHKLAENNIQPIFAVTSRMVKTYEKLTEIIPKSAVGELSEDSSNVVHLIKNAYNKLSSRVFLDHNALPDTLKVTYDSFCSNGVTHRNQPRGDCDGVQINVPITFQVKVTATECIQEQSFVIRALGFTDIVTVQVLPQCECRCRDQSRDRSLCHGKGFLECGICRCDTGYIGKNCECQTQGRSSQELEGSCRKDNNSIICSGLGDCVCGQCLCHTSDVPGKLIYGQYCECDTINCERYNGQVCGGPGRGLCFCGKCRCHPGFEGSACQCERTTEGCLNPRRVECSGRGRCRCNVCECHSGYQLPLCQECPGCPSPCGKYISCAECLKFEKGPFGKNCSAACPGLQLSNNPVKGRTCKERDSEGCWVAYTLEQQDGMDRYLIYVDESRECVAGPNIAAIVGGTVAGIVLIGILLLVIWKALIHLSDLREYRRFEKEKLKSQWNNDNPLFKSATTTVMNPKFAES
inhibition [4] [%],SMILES,further results
58,CC(C)c1ccccc1Sc1ccc(-c2ccnc(N3CCN(C)CC3)c2)cc1C(F)(F)F,–
54,CCN1CCN(c2cc(-c3ccc(Sc4ccccc4C(C)C)c(C(F)(F)F)c3)ccn2)CC1,–
34,CC(C)c1ccccc1Sc1ccc(-c2ccnc(N3CCCCCC3)c2)cc1C(F)(F)F,–

# The next lines start with the compound.
SMILES,inhibition [4] [%],further results
CC(C)c1ccccc1Sc1ccc(-c2csc(N3CCCCC3)n2)cc1C(F)(F)F,–,inhibition [1]: 40%
CC(C)c1ccccc1Sc1ccc(-c2cc(N3CCCC(C(=O)O)C3)ncn2)cc1C(F)(F)F (stereo not given),–,IC50 [2]: 120 nM; EC50 [3]: 90 nM
CC(C)c1ccccc1Sc1ccc(-c2ccnc(N3CCN(c4cnccn4)CC3)c2)cc1C(F)(F)F,82,–
CC(C)c1ccccc1Sc1ccc(-c2cc(N3CCCC(c4nn[nH]n4)C3)ncn2)cc1C(F)(F)F (stereo not given),–,IC50 [2]: 51 nM; EC50 [3]: 20 nM
CC(C)c1ccccc1Sc1ccc(-c2ccnc(N3CCCC(C)(C)C3)c2)cc1C(F)(F)F,22,–
